Reference: ChEMBL document CHEMBL5518196, “Discovery of potent thiazolidin-4-one sulfone derivatives for inhibition of proliferation of osteosarcoma in vitro and in vivo” (Eur J Med Chem, 2024)
Activity calls are given as the source filed them. The rule behind the calls is not given here.

Columns and labels:
[1] = Metabolic stability in human liver microsomes assessed as bioavailability at 0.1 uM preincubated for 10 mins followed by NADPH addition and measured upto 60 mins by LC-MS/MS analysis; assay type: ADME, Microsome; conditions: time < 70 min
[2] = Metabolic stability in mouse liver microsomes assessed as half-life at 0.1 uM preincubated for 10 mins followed by NADPH addition and measured upto 60 mins by LC-MS/MS analysis; assay type: ADME, Microsome; conditions: time < 70 min
HOS-TE85 [3] = assay: Antiproliferative activity against human MNNG/HOS cells assessed as inhibition of cell growth incubated for 72 hrs by CCK8 assay; assay type: functional, cell-based; conditions: HOS-TE85, 72 h
[4] = Metabolic stability in human liver microsomes assessed as half-life at 0.1 uM preincubated for 10 mins followed by NADPH addition and measured upto 60 mins by LC-MS/MS analysis; assay type: ADME, Microsome; conditions: time < 70 min
[5] = Half-life in male Wistar rat at 100 mg/kg, po; conditions: in vivo
HOS-TE85 [6] = assay: Inhibition of colony formation in human MNNG/HOS cells at 4 uM incubated for 10 days by crystal violet staining based light microscopic analysis; assay type: functional, cell-based; conditions: time 10.0 day
HOS-TE85 [7] = assay: Antiproliferative activity against human MNNG/HOS cells assessed as inhibition of cell growth incubated for 24 to 72 hrs by CellTiter-Glo luminescent cell viability assay; assay type: functional, cell-based
HOS-TE85 [8] = assay: Antitumor activity against human MNNG/HOS cells xenografted in female BALB/c mouse assessed as tumor growth inhibition at 30 mg/kg, po administered twice daily for 23 days relative to control; assay type: functional; conditions: HOS-TE85, 552 h, time 23 day, read-out: TGI

| Structure (SMILES) | IC50 (HOS-TE85 [3]) [nM] | other results |
| --- | --- | --- |
| COc1cccnc1N1C(=O)CS(=O)(=O)C1c1cccc(C(=O)NCCCCc2ccccc2)n1 (centres undefined) | 6 | bioavailability at 0.1 µM [1]: 1.94%; half-life at 0.1 µM [2]: 1.03 min; half-life at 0.1 µM [4]: 2.12 min |
| O=C(NCCCCc1ccccc1)c1cccc(C2N(CCc3ccccc3)C(=O)C[S+]2[O-])c1 (centres undefined) | > 10000 | – |
| O=C(CCCNC(=O)c1cccc(C2N(c3ccccn3)C(=O)CS2(=O)=O)n1)Nc1ccc(F)cc1 (centres undefined) | > 1000 | – |
| COC(=O)CCCNC(=O)c1cccc(C2N(c3ccccn3)C(=O)CS2(=O)=O)n1 (centres undefined) | 142 | – |
| O=C(NCCCCc1ccccc1)c1cccc(C2N(c3ccc4ccccc4c3)C(=O)CS2(=O)=O)c1 (centres undefined) | 474 | – |
| COCCCCNC(=O)c1cccc([C@H]2N(c3ccc(F)cn3)C(=O)CS2(=O)=O)n1 | 137 | – |
| O=C(NCCCCc1ccccc1)c1cccc(C2N(c3cccc4cccnc34)C(=O)CS2(=O)=O)c1 (centres undefined) | 25 | – |
| COCCCCNC(=O)c1cccc(C2N(c3ccc(F)cn3)C(=O)CS2(=O)=O)n1 (centres undefined) | 283 | – |
| O=C(NCCCCc1ccccc1)c1cccc(C2N(c3ccc4c(c3)OCO4)C(=O)CS2(=O)=O)c1 (centres undefined) | 73 | – |
| COc1cccnc1N1C(=O)CS(=O)(=O)C1c1cccc(C(=O)NCCCCc2ccccc2)c1 (centres undefined) | 16 | – |
| O=C(NCCCCc1ccccc1)c1cccc(C2N(c3ccccn3)C(=O)CS2(=O)=O)c1 (centres undefined) | 25 | – |
| Cc1ccnc(N2C(=O)C[S+]([O-])C2c2cccc(C(=O)NCCCCc3ccccc3)c2)c1 (centres undefined) | 74 | – |
| Cc1ccnc(N2C(=O)C[S+]([O-])C2c2cccc(C(=O)NCCCCn3cccn3)c2)c1 (centres undefined) | 3120 | – |
| O=C(NCCCCc1ccccc1)c1cc(C(=O)NCCCCc2ccccc2)cc(C2N(c3ccccc3)C(=O)CS2(=O)=O)c1 (centres undefined) | > 10000 | – |
| Cc1cc(N2C(=O)CS(=O)(=O)C2c2cccc(C(=O)NCCCCc3ccccc3)c2)no1 (centres undefined) | 447 | – |
| O=C1CS(=O)(=O)C(c2cccc(C(=O)NCCCCc3ccccc3)c2)N1 (centres undefined) | > 10000 | – |
| O=C(NCCCCc1ccccc1)c1ccc(C2N(c3ccccc3)C(=O)CS2(=O)=O)o1 (centres undefined) | 41 | – |
| Cc1ccnc(N2C(=O)CS(=O)(=O)C2c2cccc(C(=O)NCCCCc3ccccc3)n2)c1 (centres undefined) | 33 | – |
| Cc1ccnc(N2C(=O)CS(=O)(=O)C2c2cccc(C(=O)NCCCCn3cccn3)n2)c1 (centres undefined) | 924 | – |
| CC(C)(C)OCCCCNC(=O)c1cccc(C2N(c3ccccn3)C(=O)CS2(=O)=O)n1 (centres undefined) | > 1000 | – |
| Cc1cccc(N2C(=O)C[S+]([O-])C2c2cccc(C(=O)NCCCCc3ccccc3)c2)c1 (centres undefined) | 177 | – |
| COCCCCNC(=O)c1cccc(C2N(c3ncccc3C)C(=O)CS2(=O)=O)n1 (centres undefined) | 702 | – |
| COC(=O)CCCCNC(=O)c1cccc(C2N(c3ccccn3)C(=O)CS2(=O)=O)n1 (centres undefined) | 225 | – |
| O=C(NCCCCc1ccccc1)c1cccc(C2N(c3cccc(F)c3)C(=O)CS2(=O)=O)n1 (centres undefined) | 17 | – |
| O=C(NCCCCc1ccccc1)c1cccc(C2N(c3cccc(F)c3)C(=O)CS2(=O)=O)c1 (centres undefined) | 103 | – |
| O=C(NCCCCc1ccccc1)c1cccc(C2N(c3ccccc3)C(=O)C[S+]2[O-])n1 (centres undefined) | 260 | – |
| Cc1ccc(N2C(=O)CS(=O)(=O)C2c2cccc(C(=O)NCCCCc3ccccc3)n2)nc1 (centres undefined) | 31 | – |

| Structure (SMILES) | IC50 (HOS-TE85 [3]) [nM] | other results |
| --- | --- | --- |
| O=C(NCCCCc1ccccc1)c1cccc(C2N(c3ccc(-c4ccccc4)cc3)C(=O)CS2(=O)=O)c1 (centres undefined) | > 10000 | – |
| O=C(NCCCCc1ccccc1)c1cccc(C2N(c3ccc(F)cn3)C(=O)CS2(=O)=O)n1 (centres undefined) | 20 | – |
| CCN(CC)C(=O)CCCNC(=O)c1cccc(C2N(c3ccccn3)C(=O)CS2(=O)=O)n1 (centres undefined) | > 1000 | – |
| Cc1ccnc(N2C(=O)C[S+]([O-])C2c2cccc(C(=O)NCCCCn3cccn3)n2)c1 (centres undefined) | 8290 | – |
| COC(=O)c1cccc(C2N(c3ccccc3)C(=O)CS2(=O)=O)c1 (centres undefined) | > 10000 | – |
| Cc1ccnc(N2C(=O)CS[C@@H]2c2cccc(C(=O)NCCCCn3cccn3)c2)c1 | – | bioavailability at 0.1 µM [1]: 13.2%; half-life at 0.1 µM [2]: 5.36 min; half-life at 0.1 µM [4]: 16.3 min |
| COC(=O)c1cccc(C2SCC(=O)N2c2ccccn2)n1 (centres undefined) | > 1000 | – |
| Cc1ccnc(N2C(=O)CS[C@H]2c2cccc(C(=O)NCCCCn3cccn3)c2)c1 | > 10000 | – |
| COCCCCNC(=O)c1cccc([C@H]2N(c3ncccc3OC)C(=O)CS2(=O)=O)n1 | 71 | – |
| COc1ccccc1N1C(=O)CS(=O)(=O)C1c1cccc(C(=O)NCCCCc2ccccc2)n1 (centres undefined) | 4 | – |
| CCCCNC(=O)c1cccc(C2N(c3ccccn3)C(=O)CS2(=O)=O)n1 (centres undefined) | 420 | – |
| O=C(NCCCCc1ccccc1)c1cc(-c2ccccc2)cc(C2N(c3ccccc3)C(=O)CS2(=O)=O)c1 (centres undefined) | > 10000 | – |
| COc1ccnc(N2C(=O)CS(=O)(=O)C2c2cccc(C(=O)NCCCCc3ccccc3)n2)c1 (centres undefined) | 178 | – |
| CNC(=O)c1cc(Oc2ccc(NC(=O)Nc3ccc(Cl)c(C(F)(F)F)c3)cc2)ccn1 [SORAFENIB] | – | half-life [5]: 1310 min; inhibition (HOS-TE85 [6]): Active; IC50 (HOS-TE85 [7]): 4.81 µM; inhibition in vivo at 30 mg/kg (HOS-TE85 [8]): 39.8% |
| COCCCCNC(=O)c1cccc(C2N(c3ncccc3OC)C(=O)CS2(=O)=O)c1 (centres undefined) | > 1000 | – |
| COCCCCNC(=O)c1cccc([C@@H]2N(c3ncccc3OC)C(=O)CS2(=O)=O)n1 | 113 | – |
| O=C(NCCCCc1ccccc1)c1cccc(C2N(c3ccccn3)C(=O)CS2(=O)=O)n1 (centres undefined) | 109 | – |
| O=C(NCCCCc1ccccc1)c1cccc(C2N(C3CCCCC3)C(=O)CS2(=O)=O)c1 (centres undefined) | 2020 | – |
| O=C(NCCCCc1ccccc1)c1ccc(C2N(c3ccccc3)C(=O)CS2(=O)=O)cc1 (centres undefined) | > 10000 | – |
| C#Cc1cc(C(=O)NCCCCc2ccccc2)cc(C2N(c3ccccn3)C(=O)CS2(=O)=O)c1 (centres undefined) | 32 | – |
| O=C(NCCCCc1ccccc1)c1cccc(C2N(c3cccc(Cl)c3)C(=O)CS2(=O)=O)n1 (centres undefined) | 430 | – |
| O=C(NCCOCc1ccccc1)c1cccc(C2N(c3ccccn3)C(=O)CS2(=O)=O)n1 (centres undefined) | > 1000 | – |
| O=C(NCCCCc1ccccc1)c1cccc(C2N(c3ccccc3)C(=O)CS2(=O)=O)n1 (centres undefined) | > 10000 | – |
| COCCCCNC(=O)c1cccc(C2N(c3ncccc3OC)C(=O)C[S+]2[O-])n1 (centres undefined) | > 1000 | – |
| O=C(NCCCCc1ccccc1)c1cccc(C2N(c3cccc4ccccc34)C(=O)CS2(=O)=O)c1 (centres undefined) | > 10000 | – |
| COCCCCNC(=O)c1cccc(C2N(c3ccccn3)C(=O)CS2(=O)=O)n1 (centres undefined) | 149 | bioavailability at 0.1 µM [1]: 45.8%; half-life at 0.1 µM [2]: 56.5 min; half-life at 0.1 µM [4]: 90.6 min |
